Measured values taken from US4859678A, “N-oxide ergolines as antihypertensive agents” (Farmitalia Carlo Erba, priority 1987, dated 1989).

System: mean blood pressure
Test: Antihypertensive activity: intra-arterial mean blood pressure after single oral dose in rats
Assay type: in vivo
Details: rat, p.o.; for ED25 (dose lowering mean blood pressure of 25 mmHg) / ED (25 mmHg): single dose, calculated from dose-response regression line; for Decrease in mean blood pressure at 15' / Decrease in mean blood pressure at 30' / Decrease in mean blood pressure at 1 h / Decrease in mean blood pressure at 2 h / Decrease in mean blood pressure at 3 h / Decrease in mean blood pressure at 4 h / Decrease in mean blood pressure at 5 h / Decrease in mean blood pressure at 6 h / Decrease in mean blood pressure at 8 h / Decrease in mean blood pressure at 10 h / Decrease in mean blood pressure at 12 h: ex 40 0.125, Example 1 0.5, ex 41 0.25, Example 2 1 mg/kg; for Decrease in mean blood pressure at 15': 15 min, not significant (**): Example 1; for Decrease in mean blood pressure at 30': 30 min; for Decrease in mean blood pressure at 6 h: not significant (**): ex 41; for Decrease in mean blood pressure at 8 h / Decrease in mean blood pressure at 10 h / Decrease in mean blood pressure at 12 h: not significant (**): ex 40, ex 41; for ED (25 mmHg): po, read-out: ED25 (dose lowering mean blood pressure of 25 mmHg)
Procedure: Intrarterial measurements of mean blood pressure (MBP) were performed through catheters (PE 50, Clay Adams) implanted in the rat right carotid artery under halothane anesthesia. Twenty four hours after surgery, the animals were placed in Ballman cages and the arterial cannula was connected via a pressure transducer to a Beckman blood pressure recorder for continuous monitoring of mean blood pressure. MBP was recorded before the oral administration (basal values) and at 15-30-60-120-240 minutes until 12 hours after treatment. Groups of 7 to 8 rats were orally treated with a single dose of the test compound of vehicle, methocel 0.5% w/v (0.2 ml/100 g b.w.). The ED25 was calculated for each compound from the dose-response regression line.
As reference standard drugs, two prior art ergoline derivatives described by EP 0126968 were also tested.
In fact, the mean blood pressure decrease induced by the two derivatives of the present invention was still significant 10 to 12 hours after dosing, whereas with the prior art compounds the hypotensive effect lasted only 5 to 6 hours. The oral orientative acute toxicity (LD50) in mice (evaluated in the Irwin test) of the compounds of the formula I was higher than 800 mg/kg.

Row | Compound | ED25 (dose lowering mean blood pressure of 25 mmHg) [mg/Kg^-1] | Decrease in mean blood pressure at 15' | Decrease in mean blood pressure at 30' | Decrease in mean blood pressure at 1 h | Decrease in mean blood pressure at 2 h | Decrease in mean blood pressure at 3 h | Decrease in mean blood pressure at 4 h | Decrease in mean blood pressure at 5 h | Decrease in mean blood pressure at 6 h | Decrease in mean blood pressure at 8 h | Decrease in mean blood pressure at 10 h | Decrease in mean blood pressure at 12 h | ED (25 mmHg) [mg/kg]
1 | 1-[6-methyl -Δ- 9,10-ergolen -8β- yl)methyl]-2,4-(1H,3H)dihydro-pyrimidinedione-N6-oxide [Example 1] | 0.050 | -12.2 ΔmmHg | -21.0 ΔmmHg | -32.2 ΔmmHg | -35.5 ΔmmHg | -45.1 ΔmmHg | -55.1 ΔmmHg | -58.5 ΔmmHg | -54.3 ΔmmHg | -44.3 ΔmmHg | -35.5 ΔmmHg | -27.2 ΔmmHg | 
2 | C[N+]1([O-])C[C@H](CN2CC(=O)NC2=O)C=C2c3cccc4[nH]cc(c34)C[C@H]21 (stereo partly drawn) [Example 2, 1-[(6-methyl -Δ-9,10-ergolen-8β-yl)methyl]-2,4-imidazolidinedione-N6-oxide] |  | -23.1 ΔmmHg | -27.5 ΔmmHg | -35.9 ΔmmHg | -34.1 ΔmmHg | -35.0 ΔmmHg | -38.4 ΔmmHg | -36.5 ΔmmHg | -34.1 ΔmmHg | -27.8 ΔmmHg | -22.5 ΔmmHg | -16.2 ΔmmHg | 0.198
3 | CN1C[C@H](Cn2ccc(=O)[nH]c2=O)C=C2c3cccc4[nH]cc(c34)C[C@H]21 [Standard, ex 40 of EP 0126968, 1-[(6-methy -Δ-9,10-ergolen-8β-yl)methyl]-2,4-(1H,3H)dihydro-pyrimidine diole] | 0.046 | -22.9 ΔmmHg | -34.5 ΔmmHg | -33.9 ΔmmHg | -37.3 ΔmmHg | -34.5 ΔmmHg | -42.7 ΔmmHg | -28.9 ΔmmHg | -25.5 ΔmmHg | -10.5 ΔmmHg | -7.3 ΔmmHg | -6.7 ΔmmHg | 
4 | CN1C[C@H](CN2CC(=O)NC2=O)C=C2c3cccc4[nH]cc(c34)C[C@H]21 [Standard, ex 41 of EP 0126968, 1-[(6-methyl-Δ-9,10-ergolen-8β-yl)methyl]-2,4-imidazolidinedione] |  | -26.8 ΔmmHg | -31.4 ΔmmHg | -29.6 ΔmmHg | -37.5 ΔmmHg | -35.7 ΔmmHg | -31.4 ΔmmHg | -15.7 ΔmmHg | -14.6 ΔmmHg | -2.5 ΔmmHg | -6.5 ΔmmHg | -9.4 ΔmmHg | 0.19
